Measurements from publication PMC11032351, “Epigenetic modulation through BET bromodomain inhibitors as a novel therapeutic strategy for progranulin-deficient frontotemporal dementia” (Scientific Reports, 2024).

What was measured:
Endogenous BRD4 (NPC) = biological target: T1, Endogenous BRD4 (NPC) (Homo sapiens, UniProt O60885); test: CoraFluor TR-FRET ligand displacement, endogenous BRD4 in NPC lysate; type: binding; details: with 95% confidence interval, read-out: Endogenous BRD4 (NPC), KD,app
T1 construct: target engagement toward endogenous BRD4 derived from cellular lysates of cell types of interest; endogenous in cells; host or cells: 8330-8 human iPSC-derived neural progenitor cells
Method: A cell pellet from one 15 cm dish (~ 25 M cells) of HEK293T cells, or from one confluent T-75 flask 8330-8 NPC cells (~ 9 M cells), was allowed to thaw on ice and cells were suspended in 400 μL lysis buffer (25 mM HEPES, 150 mM NaCl, 0.2% (v/v) Triton X-100, 0.02% (v/v) TWEEN-20, pH 7.5 supplemented with 2 mM DTT and one Roche cOmplete, Mini, EDTA-free protease inhibitor cocktail tablet (Sigma 11,836,170,001) per 7 mL. Cells were homogenized via passage through a 27.5-gauge needle 5 times, and the resulting mixture was incubated with slow, end-over-end mixing at 4 °C for 15 min. The lysate was clarified via centrifugation at 16,100 × g for 10 min at 4 °C then 800 μL (1:3 dilution) dilution buffer (25 mM HEPES, 150 mM NaCl, 0.005% (v/v) TWEEN-20, pH 7.5) was added and the lysate was re-clarified at 16,100 × g for 10 min at 4 °C. Total protein was quantified via detergent-compatible Bradford assay (ThermoFisher 23,246). The lysate was used fresh or flash-frozen in liquid nitrogen and stored at − 80 °C in single-use aliquots.
(§1) Unless otherwise noted, experiments were performed in white, 384-well microtiter plates (Corning 3572 or PerkinElmer ProxiPlate-384 Plus) in 30 μL or 10 μL assay volume, respectively. TR-FRET measurements were acquired on a Tecan SPARK plate reader with SPARKCONTROL software version V2.1 (Tecan Group Ltd.), with the following settings: 340/50 nm excitation, 490/10 nm (Tb), 520/10 nm (FITC) emission, 100 μs delay, and 400 μs integration. The 490/10 and 520/10 nm emission channels were acquired with a 50% mirror and a dichroic 510 mirror, respectively, using independently optimized detector gain settings unless specified otherwise. The TR-FRET ratio was taken as the 520/490 nm intensity ratio on a per-well basis.
For the profiling of endogenous BRD4, cell lysates as prepared above were diluted to 0.8 mg/mL total protein in 1:3 lysis buffer:dilution buffer with 0.5 nM rabbit anti-BRD4 antibody (Cell Signaling Technology; E2A7X) and 1 nM CoraFluor-1-labeled anti-rabbit Nano-Secondary (ChromoTek CTK0101). JQ1-FITC was added in serial dilution (cmax = 200 nM) using an HP D300 digital dispenser and allowed to equilibrate for 2 h at room temperature before TR-FRET measurements were taken. Nonspecific signal was determined with 50 μM JQ1-Acid, and data were fitted to a One Site–Specific Binding model in Prism 9. The KD,app determined from the one-site model was then adjusted for a two-site model using Eq. 1.
(§2) The following assay parameters have been used: (i) 4 nM GST-BRD4(BD1), 4 nM CoraFluor-labeled GST VHH, 20 nM JQ1-FITC in assay buffer, (ii) 4 nM GST-BRD4(BD2), 4 nM CoraFluor-labeled GST VHH, 20 nM JQ1-FITC in assay buffer, (iii) HEK293T or NPC cell lysate at 0.8 mg/mL total protein, 1 nM rabbit anti-BRD4 antibody, 2 nM CoraFluor-labeled anti-rabbit Nano-Secondary, 20 nM JQ1-FITC. For all experiments, test compounds were added in serial dilution (cmax = 10 μM) using an HP D300 digital dispenser and allowed to equilibrate for 2 h at room temperature before TR-FRET measurements were taken. The assay floor (background) was defined with the 10 μM mivebresib dose, and the assay ceiling (top) was defined via a no-inhibitor control. Data were fitted to a four-parameter dose–response model in Prism 9.
(§3) For TR-FRET ligand displacement assays with recombinant bromodomains, we have determined the KD of the respective fluorescent tracer (JQ1-FITC) under each assay condition. For endogenous BRD4 in whole cell extract, we have determined the KD,app of JQ1-FITC under each assay condition. Inhibitor KD and KD,app values have been calculated using Cheng-Prusoff principles, outlined in Eq. 2 below:2 KDorKD,app=IC50/1+[S]/KX where IC50 is the measured IC50 value, [S] is the concentration of fluorescent tracer, and KX is the KD or KD,app of the fluorescent tracer for a given condition.

Recombinant BRD4(BD2) = biological target: T2, Recombinant BRD4(BD2) (Homo sapiens, UniProt O60885); test: TR-FRET ligand displacement, recombinant GST-BRD4(BD2); type: binding; details: GST-tagged, with 95% confidence interval
T2 construct: using the recombinant, individually purified bromodomains of BRD4 (GST-tagged BD1 and BD2); purchased Epicypher, Inc 15–0013
Method: as §1
Assays were performed as described. Recombinant BRD4(BD1) and BRD4(BD2) were purchased from BPS Biosciences, Inc and Epicypher, Inc (GST-BRD4(BD1), 31,040; GST-BRD4(BD2), 15–0013, respectively). Recombinant bromodomains were diluted to 0.5 nM in assay buffer (25 mM HEPES, 150 mM NaCl, 0.5 mg/mL BSA, 0.005% TWEEN-20, pH 7.5) with 2 nM CoraFluor-1-labeled GST VHH (ChromoTek ST-250), then JQ1-FITC was added in serial dilution (cmax = 100 nM) using an HP D300 digital dispenser and allowed to equilibrate for 2 h at room temperature before TR-FRET measurements were taken. Nonspecific signal was determined with 50 μM JQ1-Acid, and data were fitted to a One Site–Specific Binding model in Prism 9. The KD determined from the one-site model was then used in Eq. 1 to adjust for a two-site model due to the dimeric GST protein:1 KD,2-site=KD,1-site×(1+2)
as §2, §3

Row | SMILES | Kd (Endogenous BRD4 (NPC)) | Kd (Recombinant BRD4(BD2))
1 | Cn1ccc2c(-c3cccnc3Oc3ccc(F)cc3)c[nH]c2c1=O [Compound 18B, 3-[2-(4-fluorophenoxy)pyridin-3-yl]-6-methyl-1,6-dihydro-7H-pyrrolo[2,3-c]pyridin-7-one] | 131 nM | 158 nM
2 | Cn1cc(-c2cccnc2Oc2ccc(F)cc2)c2cc[nH]c2c1=O [Compound 18A, 4-(2-(4-fluorophenoxy)pyridin-3-yl)-6-methyl-1H-pyrrolo[2,3-c]pyridin-7(6H)-one] | 46 nM | 24 nM
3 | Cn1ccc2c(-c3cc(F)cnc3Oc3ccc(F)cc3)c[nH]c2c1=O [Compound 86B, 3-(5-fluoro-2-(4-fluorophenoxy)pyridin-3-yl)-6-methyl-1,6-dihydro-7H-pyrrolo[2,3-c]pyridin-7-one] | 5900 nM | 3710 nM
4 | Cn1ccc2c(-c3cccnc3Oc3ccc(F)c(F)c3)c[nH]c2c1=O [Compound 81B, 3-(2-(3,4-difluorophenoxy)pyridin-3-yl)-6-methyl-1,6-dihydro-7H-pyrrolo[2,3-c]pyridin-7-one] | 532 nM | 375 nM
5 | Cn1ccc2c(-c3cccnc3Sc3ccc(F)cc3)c[nH]c2c1=O [Compound 84B, 3-(2-((4-fluorophenyl)thio)pyridin-3-yl)-6-methyl-1,6-dihydro-7H-pyrrolo[2,3-c]pyridin-7-one] | 195 nM | 133 nM
6 | Cn1ccc2c(-c3cccnc3Nc3ccc(F)cc3)c[nH]c2c1=O [Compound 85B, 3-(2-((4-fluorophenyl)amino)pyridin-3-yl)-6-methyl-1,6-dihydro-7H-pyrrolo[2,3-c]pyridin-7-one] | 3810 nM | 2740 nM
7 | Cn1ccc2c(-c3cccnc3Oc3cc(F)cc(F)c3)c[nH]c2c1=O [Compound 82B, 3-(2-(3,5-difluorophenoxy)pyridin-3-yl)-6-methyl-1,6-dihydro-7H-pyrrolo[2,3-c]pyridin-7-one] | 430 nM | 332 nM
8 | Cn1cc(-c2cccnc2Sc2ccc(F)cc2)c2cc[nH]c2c1=O [Compound 84A, 4-(2-((4-fluorophenyl)thio)pyridin-3-yl)-6-methyl-1,6-dihydro-7H-pyrrolo[2,3-c]pyridin-7-one] | 378 nM | 199 nM
9 | Cn1cc(-c2cccnc2Oc2ccc(F)c(F)c2)c2cc[nH]c2c1=O [Compound 81A, 4-(2-(3,4-difluorophenoxy)pyridin-3-yl)-6-methyl-1,6-dihydro-7H-pyrrolo[2,3-c]pyridin-7-one] | 32 nM | 34 nM
10 | Cn1cc(-c2cccnc2Oc2cc(F)cc(F)c2)c2cc[nH]c2c1=O [Compound 82A, 4-(2-(3,5-difluorophenoxy)pyridin-3-yl)-6-methyl-1,6-dihydro-7H-pyrrolo[2,3-c]pyridin-7-one] | 45 nM | 30 nM
11 | Cn1cc(-c2cc(F)cnc2Oc2ccc(F)cc2)c2cc[nH]c2c1=O [Compound 86A, 4-(5-fluoro-2-(4-fluorophenoxy)pyridin-3-yl)-6-methyl-1,6-dihydro-7H-pyrrolo[2,3-c]pyridin-7-one] | 559 nM | 324 nM
12 | Cn1cc(-c2cccnc2Nc2ccc(F)cc2)c2cc[nH]c2c1=O [Compound 85A, 4-(2-((4-fluorophenyl)amino)pyridin-3-yl)-6-methyl-1,6-dihydro-7H-pyrrolo[2,3-c]pyridin-7-one] | 100 nM | 421 nM
